Assay results: EP0097071A1, “Benzhydryl sulfinylacetamide derivatives and their therapeutical use” (LABORATOIRE L. LAFON Société anonyme dite:, priority 1982, dated 1983)

What was measured:
[1] = test system: souris mâle; test: Toxicity, DL-0; format: in vivo; details: i.p.
Method in brief: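 Male mice dosed intraperitoneally with compound suspended in aqueous gum arabic at 20 ml/kg. Value is DL-0, the minimal non-lethal dose.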

[2] = test system: souris; test: Four plates test; format: in vivo; details: 0,5 h after administration, dose not stated
[3] = test system: souris; test: Behavioural despair (forced immersion); format: in vivo; details: 8 mg/kg, 32 mg/kg et 128 mg/kg i.p.
Method in brief: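 Male mice were dosed i.p. with compound suspended in aqueous gum arabic at 20 ml/kg, 10 per dose. Thirty minutes later each mouse was put in a confined space holding 6 cm of water, and immobility time was scored from minute 2 to minute 6.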

[4] = test system: rats mâles; test: Global behaviour and reactivities, rat; format: in vivo
[5] = test system: souris; test: Electroshock; format: in vivo; details: dose not stated
[6] = test system: rats; test: Interaction with amphetamine (stereotypies); format: in vivo; details: rat, 64 mg/kg i.p.
Method in brief: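 Male rats, groups of 6, given test compound i.p. as aqueous gum arabic suspension; amphetamine 2 mg/kg i.p. injected 30 min later and stereotypies scored.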

[7] = test system: souris; test: Interaction with oxotremorine; format: in vivo
Method in brief: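 Groups of 6 male mice received test compound i.p. as a suspension in aqueous gum arabic (20 ml/kg).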

[8] = test system: souris; test: Asphyxic anoxia (gallamine triethiodide); format: in vivo; details: dose not stated
Method in brief: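 Male mice, 10 per dose, given compound i.p. as suspension in aqueous gum arabic (20 ml/kg). Gallamine triethiodide 32 mg/kg i.p. injected 30 min after compound.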

[9] = test system: SNC; test: Essential activity on the CNS (Tableau I and conclusions of the neuropsychopharmacological study); format: in vivo; details: in vivo
Description: Dans le tableau I ci-après, on a consigné un certain nombre de composés selon la formule I de façon nullement limitative, en mentionnant l'activité essentielle sur le SNC.
Les composés de formule I agissent tous sur le SNC. Les produits des exemples 1-3 et 7-8 sont des agents stimulants, en revanche les produits des exemples 4-6 sont des agents sédatifs.

[10] = test system: souris; test: Spontaneous motility (actimeter); format: in vivo; details: 8 mg/kg, 32 mg/kg et 128 mg/kg i.p.
Method in brief: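 Male mice dosed i.p. as a suspension in aqueous gum arabic (20 ml/kg); 30 min later they are placed in an actimeter and motility is recorded for 30 min, 6 mice per dose, 12 controls.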

[11] = test system: souris; test: Traction test; format: in vivo; details: 0,5 h after administration, dose not stated
[12] = test system: souris; test: Interaction with barbital (sleep); format: in vivo; details: 32 mg/kg et 128 mg/kg i.p.
Method in brief: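 Male mice (groups of 10) dosed intraperitoneally with compound suspended in aqueous gum arabic (20 ml/kg); barbital 220 mg/kg i.p. given half an hour later.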

[13] = test system: souris; test: Motility reduced by hypoxic aggression (acute hypobaric anoxia); format: in vivo; details: 32 mg/kg, mais surtout 128 mg/kg i.p.
Method in brief: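 Male mice (10 per dose, 20 controls) got compound i.p. as an aqueous gum arabic suspension (20 ml/kg). Thirty minutes later they underwent acute hypobaric anoxia: 600 mm Hg depression over 90 s, then 45 s release. Motility was then recorded in an actimeter for 10 min.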

[14] = test system: souris mâles; test: Global behaviour and reactivities, mouse; format: in vivo
[15] = test system: rat; test: Interaction with apomorphine, rat; format: in vivo; details: 64 mg/kg i.p.
Method in brief: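 Groups of 6 male rats received test compound intraperitoneally as a suspension in aqueous gum arabic (5 ml/kg).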

[16] = test system: souris; test: Motility reduced by habituation to the enclosure; format: in vivo; details: dès 8 mg/kg et surtout à 32 mg/kg et 128 mg/kg i.p.
Method in brief: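 Male mice (6 per dose, 12 controls) habituated 18 h in actimeters got compound i.p. as aqueous gum arabic suspension, 20 ml/kg. Returned to enclosures immediately; motility recorded for 30 min starting 30 min post-dose.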

[17] = test system: souris; test: Intergroup aggressiveness; format: in vivo; details: dose not stated
Method in brief: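 Male mice, housed in groups of 3 on either side of an opaque partition for 3 weeks, received compound i.p. as a gum arabic suspension at 20 ml/kg. After 30 min the partition was removed, and fights were counted over 10 min.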

[18] = test system: homme; test: Clinical trials; format: in vivo
Description: Les études cliniques ont porté sur les troubles de la vigilance, de l'éveil et des états confusionnels, d'une part, et sur les troubles de l'affectivité, du contact et des dépressions, d'autre part.

[19] = test system: souris; test: Interaction with apomorphine, mouse; format: in vivo
Method in brief: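 Male mice, 6 per dose, received the test compound intraperitoneally as an aqueous gum arabic suspension (20 ml/kg).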

[20] = test system: souris; test: Interaction with reserpine; format: in vivo; details: 32 mg/kg, 64 mg/kg et 128 mg/kg i.p.
[21] = test system: souris mâle; test: Pentobarbital-induced sleep duration; format: in vivo; details: dose 32 mg/kg i.p., 0,5 h before pentobarbital
Description: Les composés selon l'invention se distinguent du benzhydrylsulfinylacétamide (CRL 40476) précité par une différence d'action vis-à-vis du sommeil barbiturique. […]. Cette différence d'action qui est intéressante sur le plan thérapeutique est illustrée par le tableau IV

[22] = test system: souris groupées; test: Toxicity in grouped mice; details: in vivo

Compound: NC(=O)C[S+]([O-])C(c1ccc(F)cc1)c1ccc(F)cc1 (centres unmarked) [Exemple 8, 4,4'-difluorobenzhydrylsulfinylacétamide]
- DL-O [1]: supérieure à 256 mg/kg
- nombre de passages punis [2]: n'entraîne pas d'augmentation
- durée d'immobilité de la souris placée en immersion forcée [3]: diminue nettement
- Observations (comportement global et réactivités) ([4]; 16 mg/kg i.p.): excitation - réactivité au toucher pendant 2 h
- Observations (comportement global et réactivités) ([4]; 64 mg/kg i.p.): excitation - réactivité au toucher - fréquence respiratoire augmentée pendant 24 h
- effets convulsivants de l'électrochoc [5]: ne modifie pratiquement pas
- stéréotypies amphétaminiques [6]: potentialisation
- hypothermie induite par l'oxotrémorine ([7]; 2 mg/kg, 8 mg/kg, 32 mg/kg et 128 mg/kg i.p.): antagonise modérément et tardivement
- signes de stimulation cholinergique périphérique dus à l'oxotrémorine ([7]; dose not stated): ne modifie pas
- tremblements induits par l'oxotrémorine ([7]; dose not stated): ne sont pratiquement pas modifiés
- délai d'apparition des convulsions et de la mort consécutives à une anoxie asphyxique [8]: ne modifie pas
- Activité sur le SNC [9]: stimulant
- conclusion of the neuropsychopharmacological study: main type of CNS effect [9]: composante excitante
- motilité spontanée [10]: augmentation nette
- déficit moteur (traction) [11]: ne provoque pas d'incapacité motrice majeure
- durée du sommeil barbiturique [12]: diminue nettement
- récupération motrice après séjour bref dans une enceinte à pression réduite [13]: amélioration significative
- signes de stimulation sympathique périphérique ([14]; souris): absence
- Observations (comportement global et réactivités) ([14]; souris, 2 mg/kg i.p.): réactivité au toucher pendant 2 h
- Observations (comportement global et réactivités) ([14]; souris, 8 mg/kg i.p.): éxcitation tardive débutant 2 h après administration - réactivité au toucher pendant 2 h
- Observations (comportement global et réactivités) ([14]; souris, 512 mg/kg i.p.): démarche titubante pendant 0,75 h, - convulsions (66% des animaux) pendant 0,75 h
- mortalité ([14]; souris, 512 mg/kg i.p.): 4 animaux sur 6 en 1 h, puis 2 animaux sur 6 en 24 h
- convulsions ([14]; souris, 512 mg/kg i.p., pendant 0,75 h): 66 % des animaux
- Observations (comportement global et réactivités) ([14]; souris, 32 mg/kg i.p.): excitation tardive débutant 1 h après administration et durant 2 h - stéréotypies 3 h après administration - réactivité au toucher pendant 24 h
- Observations (comportement global et réactivités) ([14]; souris, 128 mg/kg i.p.): excitation avec stéréotypies pen-dant 3 h - augmentation de la réactivité au toucher pendant 24 h - hypothermie (-1,3°C) pendant 3 h
- hypothermie ([14]; souris, 128 mg/kg i.p.): -1,3 °C
- Observations (comportement global et réactivités) ([14]; souris, 256 mg/kg i.p.): excitation débutant 0,5 h après adminis-tration - stéréotypies
- mortalité ([14]; souris, 256 mg/kg i.p.): pas de mortalité
- résorption ([14]; supposed from the late onset of several effects and the kinetic study of stereotypies): résorption lente
- stéréotypies induites par l'apomorphine [15]: augmente
- activité motrice chez la souris habituée à son enceinte [16]: reprise d'activité motrice très nette
- agressivité intergroupes (nombre de combats) [17]: n'a pas d'effet antiagressif
- action contre l'énurésie [18]: agissent efficacement
- résultats en tant que médicaments de l'éveil ([18]; notamment vieillard, gélules ou comprimés de 100 à 200 mg, 1 à 3 par jour): excellents résultats
- own effect on temperature ([19]; 32 mg/kg et 128 mg/kg i.p.): hypothermisant
- hypothermie induite par l'apomorphine ([19]; 32 mg/kg et 128 mg/kg i.p., apomorphine 1 et 16 mg/kg): aggrave
- comportement de verticalisation et stéréotypies (apomorphine) ([19]; dose not stated): ne modifie pas
- hypothermie réserpinique [20]: antagonise tardivement
- ptôsis réserpinique ([20]; à 24 h): antagonise également mais de façon modérée
- Action sur la durée du sommeil induit par le pentobarbital (50 mg/kg i.p.) effet [21]: (a)
- toxicité particulière chez les souris groupées [22]: absence de toxicité particulière
